Read-outs that look alike come from different tables or passages of the source. Positions of bridges follow the written chain, without caps; N, C: chain ends. Non-standard residues stand in square brackets, D forms with d. Residues, ends and D or L forms follow the SMILES beside them. Groups on a side chain read outwards from the residue. *: point of attachment. DOTA = O=C(O)CN1CCN(CC(=O)O)CCN(CC(=O)*)CCN(CC(=O)O)CC1; 2Nal = N[C@@H](Cc1ccc2ccccc2c1)C(=O)O; Lys(iPr) = CC(C)NCCCC[C@H](N)C(=O)O
Columns and labels:
[1] = In vivo stability (plasma radio-HPLC) in male NRG mice; conditions: 5 mins
Source text: Radiolabeled peptides (10-30 MBq) was intravenously injected into male NRG mice. After a 5-min, 24-hour or 120-hour uptake period, mice were sedated/euthanized, and blood was collected. The plasma was isolated and analyzed with analytical radio-HPLC following published procedures (Lin et al., Cancer Res. 2015, 75:387-393).

[2] = system: PC3 prostate adenocarcinoma xenografts; assay: Biodistribution in PC3 tumor-bearing mice; assay type: in vivo
Protocol: (§1) For Daudi, Z138, GRANTA519 and Jeko1 xenografts, male NOD.Cg-Rag1^tm1MomII2rg^tm1Wjl/SzJ (NRG) mice were subcutaneously inoculated on the left flank with 5×10^6 cells (100 μL; 1:1 ratio of PBS/Matrigel) and tumors were grown to a size of 200-500 mm^3. For PC-3 xenografts, male NOD.Cg-Rag1^tm1MomII2rg^tm1Wjl/SzJ (NRG) mice were subcutaneously inoculated on the left flank with 5×10^6 PC-3 cells (100 μL; 1:1 ratio of PBS/Matrigel) and tumors were grown to a size of 200-400 mm^3.
(§2) The mice were euthanized via CO2 inhalation while anesthetized with isoflurane. Tissues were harvested, washed in PBS, blotted dry, weighed, and measured on a Hidex AMG Automatic Gamma Counter.

[3] = Biodistribution in PC3 tumor-bearing mice; assay type: in vivo; conditions: male, NOD.Cg-Rag1^tm1MomII2rg^tm1Wjl/SzJ (NRG), mouse, iv, total radioactivity
Protocol: as §1, §2

[4] = Biodistribution in Jeko1 tumor-bearing mice; assay type: in vivo; conditions: male, NOD.Cg-Rag1^tm1MomII2rg^tm1Wjl/SzJ (NRG), mouse, iv, total radioactivity
Protocol: as §1, §2

[5] = system: Jeko1 mantle cell lymphoma xenografts; assay: Biodistribution in Jeko1 tumor-bearing mice; assay type: in vivo
Protocol: as §1, §2

[6] = 1 h blocked (7.5 μg LY2510924 i.p.)
[7] = adrenals, 1 h, read-out: Biodistribution Adrenals
[8] = adrenals, 1 h blocked (7.5 μg LY2510924 i.p.), read-out: Biodistribution Adrenals
[9] = bone, 1 h, read-out: Biodistribution Bone
[10] = bone, 1 h blocked (7.5 μg LY2510924 i.p.), read-out: Biodistribution Bone
[11] = brain, 1 h, read-out: Biodistribution Brain
[12] = brain, 1 h blocked (7.5 μg LY2510924 i.p.), read-out: Biodistribution Brain
[13] = fat, 1 h, read-out: Biodistribution Fat
[14] = fat, 1 h blocked (7.5 μg LY2510924 i.p.), read-out: Biodistribution Fat
[15] = heart, 1 h, read-out: Biodistribution Heart
[16] = heart, 1 h blocked (7.5 μg LY2510924 i.p.), read-out: Biodistribution Heart
[17] = intestine, 1 h, read-out: Biodistribution Intestine
[18] = intestine, 1 h blocked (7.5 μg LY2510924 i.p.), read-out: Biodistribution Intestine
[19] = kidney, 1 h, read-out: Biodistribution Kidney
[20] = kidney, 1 h blocked (7.5 μg LY2510924 i.p.), read-out: Biodistribution Kidney
[21] = liver, 1 h, read-out: Biodistribution Liver
[22] = liver, 1 h blocked (7.5 μg LY2510924 i.p.), read-out: Biodistribution Liver
[23] = lung, 1 h, read-out: Biodistribution Lung
[24] = lung, 1 h blocked (7.5 μg LY2510924 i.p.), read-out: Biodistribution Lung
[25] = muscle, 1 h, read-out: Biodistribution Muscle
[26] = muscle, 1 h blocked (7.5 μg LY2510924 i.p.), read-out: Biodistribution Muscle
[27] = pancreas, 1 h, read-out: Biodistribution Pancreas
[28] = pancreas, 1 h blocked (7.5 μg LY2510924 i.p.), read-out: Biodistribution Pancreas
[29] = spleen, 1 h, read-out: Biodistribution Spleen
[30] = spleen, 1 h blocked (7.5 μg LY2510924 i.p.), read-out: Biodistribution Spleen
[31] = stomach, 1 h, read-out: Biodistribution Stomach
[32] = stomach, 1 h blocked (7.5 μg LY2510924 i.p.), read-out: Biodistribution Stomach
[33] = testes, 1 h, read-out: Biodistribution Testes
[34] = testes, 1 h blocked (7.5 μg LY2510924 i.p.), read-out: Biodistribution Testes

In the case of `CC(C)NCCCC[C@@H]1NC(=O)[C@H](Cc2ccc(O)cc2)NC(=O)[C@H](Cc2ccccc2)NC(=O)CC[C@H](C(=O)N[C@@H](CCCCNC(C)C)C(=O)N[C@@H](CCCCNC(=O)[C@H](CCC(=O)O)NC(=O)[C@H](CCC(=O)O)NC(=O)[C@H](CCC(=O)O)NC(=O)CN2CCN(CC(=O)O)CCN(CC(=O)O)CCN(CC(=O)O)CC2)C(N)=O)NC(=O)CNC(=O)[C@H](Cc2ccc3ccccc3c2)NC(=O)[C@@H](CCCNC(=N)N)NC1=O` [[^68Ga]Ga-BL02, metal not drawn] (FY[Lys(iPr)][dR][2Nal]G[dE][Lys(iPr)]K([Glu-Glu-Glu-DOTA])-NH2; lactam N-7), the “% Intact Peptide” value [1] is reported as >99%, the “Ratio Tumor: Blood” value ([2]; 1 h) is reported as 5.74 and the “Ratio Tumor: Bone” value ([2]; 1 h) is reported as 15.68. The “Ratio Tumor: Liver” value ([2]; 1 h) was 3.31, the “Ratio Tumor: Lung” value ([2]; 1 h) was 3.71 and the “Ratio Tumor: Muscle” value ([2]; 1 h) was 23.74. For the same compound, the “Ratio Tumor: Spleen” value ([2]; 1 h) was 6.62, the “Ratio Tumor: Blood” value [2, 6] was 1.56 and the “Ratio Tumor: Bone” value [2, 6] was 6.16. For the same compound, the “Ratio Tumor: Liver” value [2, 6] was 1.62, the “Ratio Tumor: Lung” value [2, 6] was 1.36 and the “Ratio Tumor: Muscle” value [2, 6] was 7.68. The “Ratio Tumor: Spleen” value [2, 6] was 2.16, the “Ratio Tumor: Blood” value ([2]; 2h) was 25.33 and the “Ratio Tumor: Bone” value ([2]; 2h) was 13.96. The “Ratio Tumor: Liver” value ([2]; 2h) was 1.99, the “Ratio Tumor: Lung” value ([2]; 2h) was 4.36 and the “Ratio Tumor: Muscle” value ([2]; 2h) was 55.01. The “Ratio Tumor: Spleen” value ([2]; 2h) was 5.63, the tissue uptake at 1 h ([3]; PC3 tumor, 1 h, read-out: Biodistribution PC3 (tumor)) was 1.83 %ID/g and the tissue uptake at 1 h ([3]; PC3 tumor, 1 h blocked (7.5 μg LY2510924 i.p.), read-out: Biodistribution PC3 (tumor)) was 0.75 %ID/g. For the same compound, the tissue uptake at 2 h ([3]; PC3 tumor, read-out: Biodistribution PC3 (tumor)) was 1.41 %ID/g, the tissue uptake at 1 h [3, 7] was 0.18 %ID/g and the tissue uptake at 1 h [3, 8] was 0.18 %ID/g. It also gave a tissue uptake at 2 h ([3]; adrenals, read-out: Biodistribution Adrenals) of 0.1 %ID/g, a tissue uptake at 1 h ([3]; blood, 1 h, read-out: Biodistribution Blood) of 0.33 %ID/g and a tissue uptake at 1 h ([3]; blood, 1 h blocked (7.5 μg LY2510924 i.p.), read-out: Biodistribution Blood) of 0.54 %ID/g. For the same compound, the tissue uptake at 2 h ([3]; blood, read-out: Biodistribution Blood) was 0.06 %ID/g, the tissue uptake at 1 h [3, 9] was 0.12 %ID/g and the tissue uptake at 1 h [3, 10] was 0.15 %ID/g. It also gave a tissue uptake at 2 h ([3]; bone, read-out: Biodistribution Bone) of 0.11 %ID/g, a tissue uptake at 1 h [3, 11] of 0.01 %ID/g and a tissue uptake at 1 h [3, 12] of 0.02 %ID/g. For the same compound, the tissue uptake at 2 h ([3]; brain, read-out: Biodistribution Brain) was 0.01 %ID/g, the tissue uptake at 1 h [3, 13] was 0.2 %ID/g and the tissue uptake at 1 h [3, 14] was 0.16 %ID/g. The tissue uptake at 2 h ([3]; fat, read-out: Biodistribution Fat) was 0.01 %ID/g, the tissue uptake at 1 h [3, 15] was 0.14 %ID/g and the tissue uptake at 1 h [3, 16] was 0.21 %ID/g. The tissue uptake at 2 h ([3]; heart, read-out: Biodistribution Heart) was 0.06 %ID/g, the tissue uptake at 1 h [3, 17] was 0.18 %ID/g and the tissue uptake at 1 h [3, 18] was 0.25 %ID/g. For the same compound, the tissue uptake at 2 h ([3]; intestine, read-out: Biodistribution Intestine) was 0.14 %ID/g, the tissue uptake at 1 h [3, 19] was 3.6 %ID/g and the tissue uptake at 1 h [3, 20] was 3.75 %ID/g. The tissue uptake at 2 h ([3]; kidney, read-out: Biodistribution Kidney) was 4.67 %ID/g, the tissue uptake at 1 h [3, 21] was 0.55 %ID/g and the tissue uptake at 1 h [3, 22] was 0.5 %ID/g. The tissue uptake at 2 h ([3]; liver, read-out: Biodistribution Liver) was 0.73 %ID/g, the tissue uptake at 1 h [3, 23] was 0.5 %ID/g and the tissue uptake at 1 h [3, 24] was 0.6 %ID/g. The tissue uptake at 2 h ([3]; lung, read-out: Biodistribution Lung) was 0.33 %ID/g, the tissue uptake at 1 h [3, 25] was 0.08 %ID/g and the tissue uptake at 1 h [3, 26] was 0.11 %ID/g. For the same compound, the tissue uptake at 2 h ([3]; muscle, read-out: Biodistribution Muscle) was 0.03 %ID/g, the tissue uptake at 1 h [3, 27] was 0.1 %ID/g and the tissue uptake at 1 h [3, 28] was 0.12 %ID/g. For the same compound, the tissue uptake at 2 h ([3]; pancreas, read-out: Biodistribution Pancreas) was 0.04 %ID/g, the tissue uptake at 1 h [3, 29] was 0.28 %ID/g and the tissue uptake at 1 h [3, 30] was 0.37 %ID/g. It also gave a tissue uptake at 2 h ([3]; spleen, read-out: Biodistribution Spleen) of 0.25 %ID/g, a tissue uptake at 1 h [3, 31] of 0.05 %ID/g and a tissue uptake at 1 h [3, 32] of 0.06 %ID/g. The tissue uptake at 2 h ([3]; stomach, read-out: Biodistribution Stomach) was 0.06 %ID/g, the tissue uptake at 1 h [3, 33] was 0.18 %ID/g and the tissue uptake at 1 h [3, 34] was 0.35 %ID/g. The tissue uptake at 2 h ([3]; testes, read-out: Biodistribution Testes) was 0.06 %ID/g, the tissue uptake at 1 h ([4]; Jeko1 tumor, 1 h, read-out: Biodistribution Jeko1 (tumor)) was 11.4 %ID/g and the tissue uptake at 1 h ([4]; Jeko1 tumor, 1 h blocked (7.5 μg LY2510924 i.p.), read-out: Biodistribution Jeko1 (tumor)) was 1.32 %ID/g. It also gave a tissue uptake at 1 h [4, 7] of 0.23 %ID/g, a tissue uptake at 1 h [4, 8] of 0.47 %ID/g and a tissue uptake at 1 h [4, 9] of 0.47 %ID/g. For the same compound, the tissue uptake at 1 h [4, 10] was 0.18 %ID/g, the tissue uptake at 1 h [4, 11] was 0.02 %ID/g and the tissue uptake at 1 h [4, 12] was 0.03 %ID/g. The tissue uptake at 1 h [4, 13] was 0.05 %ID/g, the tissue uptake at 1 h [4, 14] was 0.14 %ID/g and the tissue uptake at 1 h [4, 15] was 0.13 %ID/g. It also gave a tissue uptake at 1 h [4, 16] of 0.35 %ID/g, a tissue uptake at 1 h [4, 17] of 0.19 %ID/g and a tissue uptake at 1 h [4, 18] of 0.44 %ID/g. The tissue uptake at 1 h [4, 19] was 3.32 %ID/g, the tissue uptake at 1 h [4, 20] was 8.91 %ID/g and the tissue uptake at 1 h [4, 21] was 0.77 %ID/g. For the same compound, the tissue uptake at 1 h [4, 22] was 0.55 %ID/g, the tissue uptake at 1 h [4, 23] was 0.74 %ID/g and the tissue uptake at 1 h [4, 24] was 1.05 %ID/g. For the same compound, the tissue uptake at 1 h [4, 25] was 0.06 %ID/g, the tissue uptake at 1 h [4, 26] was 0.2 %ID/g and the tissue uptake at 1 h [4, 27] was 0.09 %ID/g. The tissue uptake at 1 h [4, 28] was 0.26 %ID/g, the tissue uptake at 1 h [4, 29] was 0.7 %ID/g and the tissue uptake at 1 h [4, 30] was 0.57 %ID/g. The tissue uptake at 1 h [4, 31] was 0.06 %ID/g, the tissue uptake at 1 h [4, 32] was 0.13 %ID/g and the tissue uptake at 1 h [4, 33] was 0.14 %ID/g. It also gave a tissue uptake at 1 h [4, 34] of 0.29 %ID/g, a tissue uptake at 1 h ([4]; whole blood, 1 h, read-out: Biodistribution Blood) of 0.38 %ID/g and a tissue uptake at 1 h ([4]; whole blood, 1 h blocked (7.5 μg LY2510924 i.p.), read-out: Biodistribution Blood) of 1.08 %ID/g. For the same compound, the “Ratio Tumor: Blood” value ([5]; 1 h) was 31.30, the “Ratio Tumor: Bone” value ([5]; 1 h) was 37.23 and the “Ratio Tumor: Liver” value ([5]; 1 h) was 15.41. For the same compound, the “Ratio Tumor: Lung” value ([5]; 1 h) was 15.76, the “Ratio Tumor: Muscle” value ([5]; 1 h) was 180.39 and the “Ratio Tumor: Spleen” value ([5]; 1 h) was 19.78. For the same compound, the “Ratio Tumor: Blood” value [5, 6] was 1.74, the “Ratio Tumor: Bone” value [5, 6] was 8.83 and the “Ratio Tumor: Liver” value [5, 6] was 2.59. The “Ratio Tumor: Lung” value [5, 6] was 1.48, the “Ratio Tumor: Muscle” value [5, 6] was 8.71 and the “Ratio Tumor: Spleen” value [5, 6] was 3.10.

Reference: patent US20220218852A1, “NOVEL RADIOLABELLED CXCR4-TARGETING COMPOUNDS FOR DIAGNOSIS AND THERAPY” (PROVINCIAL HEALTH SERVICES AUTHORITY, priority 2019, published 2022)
